The values below come from US11020399B2, “Intermediates useful in the synthesis of compounds as modulators of protein kinases” (Rhizen Pharmaceuticals SA, priority 2011, dated 2021).

Series [1] concerns the target PI3kγ (Homo sapiens, UniProt P48736). Briefly: Fluorescent (HTRF) determination of PI3 kinase enzyme activity, PI3Kγ. The format is biochemical. As to conditions: for inhibition at 0.1 µM / % inhibition (PI3kγ) 100 nM: 100 nM (Examples 60-137); for % inhibition (PI3kγ) 100 nM: 0.1 µM; for inhibition at 0.3 µM: 300 nM (Examples 1-59). In short, it runs like this:
(§1)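 Compounds tested at 1 μM on α and β isoforms and at 0.3 or 0.1 μM on γ and δ, with percent inhibition from blank and enzyme controls, plus IC50 fits. Room-temperature reaction: 10 min enzyme–compound preincubation in MgCl2/DTT buffer with 1.38 μM PIP2, then 30 min after 400 μM ATP addition; PIP3 read by HTRF (665/620 nm).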
A general note: Time-resolved FRET reads energy transfer from a long-lived donor to a nearby acceptor.

Series [2] concerns the target PI3kδ (Homo sapiens, UniProt O00329). Briefly: Fluorescent (HTRF) determination of PI3 kinase enzyme activity, PI3Kδ. The format is biochemical. As to conditions: for inhibition at 0.1 µM / % inhibition (PI3kδ) 100 nM: 100 nM (Examples 60-137); for % inhibition (PI3kδ) 100 nM: 0.1 µM; for inhibition at 0.3 µM: 300 nM (Examples 1-59). The procedure, abridged:
as §1

Series [3] has as its target PI3kβ (Homo sapiens, UniProt P42338). In words: Fluorescent (HTRF) determination of PI3 kinase enzyme activity, PI3Kβ. Format: biochemical. In short, it runs like this:
as §1

The target in series [4] is PI3kα (Homo sapiens, UniProt P42336). Briefly: Fluorescent (HTRF) determination of PI3 kinase enzyme activity, PI3Kα. Format: biochemical. In short, it runs like this:
as §1

By inhibition is commonly meant the drop in the measured response relative to a control, in per cent. Low values mean a weak effect, high ones a strong effect. For orientation: melting point means the temperature of the solid-liquid transition. One may read the IC50 as the concentration that inhibits the measured activity by half. A low value points to greater potency.

Bounds are passed on as bounds.

Chain of PI3kγ (P48736 whole entry, canonical isoform): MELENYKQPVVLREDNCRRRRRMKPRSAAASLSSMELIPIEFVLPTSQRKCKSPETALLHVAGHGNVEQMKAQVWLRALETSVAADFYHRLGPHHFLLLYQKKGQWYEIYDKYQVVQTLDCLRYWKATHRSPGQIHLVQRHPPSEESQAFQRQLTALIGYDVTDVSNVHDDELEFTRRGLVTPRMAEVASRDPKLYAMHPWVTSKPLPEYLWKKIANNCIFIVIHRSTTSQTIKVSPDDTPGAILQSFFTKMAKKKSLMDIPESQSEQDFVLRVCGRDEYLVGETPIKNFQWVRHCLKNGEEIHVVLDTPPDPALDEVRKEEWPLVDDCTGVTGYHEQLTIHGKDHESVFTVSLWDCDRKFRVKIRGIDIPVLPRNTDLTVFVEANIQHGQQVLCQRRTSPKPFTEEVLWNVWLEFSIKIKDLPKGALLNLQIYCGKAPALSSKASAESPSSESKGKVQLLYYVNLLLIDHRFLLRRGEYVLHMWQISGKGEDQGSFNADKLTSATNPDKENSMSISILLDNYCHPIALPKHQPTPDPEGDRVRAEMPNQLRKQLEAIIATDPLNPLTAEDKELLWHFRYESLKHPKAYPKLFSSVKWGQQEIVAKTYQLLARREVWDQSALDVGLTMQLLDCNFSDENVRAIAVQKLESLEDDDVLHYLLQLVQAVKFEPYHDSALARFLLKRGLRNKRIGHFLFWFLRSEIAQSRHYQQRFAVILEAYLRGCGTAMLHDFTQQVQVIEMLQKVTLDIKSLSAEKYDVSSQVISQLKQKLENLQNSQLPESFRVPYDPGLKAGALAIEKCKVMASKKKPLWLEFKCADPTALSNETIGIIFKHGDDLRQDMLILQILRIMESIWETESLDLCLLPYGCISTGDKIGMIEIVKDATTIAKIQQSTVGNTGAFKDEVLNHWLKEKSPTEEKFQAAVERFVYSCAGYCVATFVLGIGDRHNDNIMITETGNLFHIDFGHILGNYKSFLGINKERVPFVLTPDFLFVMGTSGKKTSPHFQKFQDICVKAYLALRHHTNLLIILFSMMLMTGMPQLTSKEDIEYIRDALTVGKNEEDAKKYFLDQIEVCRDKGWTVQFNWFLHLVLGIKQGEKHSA
Chain of PI3kβ (P42338 whole entry): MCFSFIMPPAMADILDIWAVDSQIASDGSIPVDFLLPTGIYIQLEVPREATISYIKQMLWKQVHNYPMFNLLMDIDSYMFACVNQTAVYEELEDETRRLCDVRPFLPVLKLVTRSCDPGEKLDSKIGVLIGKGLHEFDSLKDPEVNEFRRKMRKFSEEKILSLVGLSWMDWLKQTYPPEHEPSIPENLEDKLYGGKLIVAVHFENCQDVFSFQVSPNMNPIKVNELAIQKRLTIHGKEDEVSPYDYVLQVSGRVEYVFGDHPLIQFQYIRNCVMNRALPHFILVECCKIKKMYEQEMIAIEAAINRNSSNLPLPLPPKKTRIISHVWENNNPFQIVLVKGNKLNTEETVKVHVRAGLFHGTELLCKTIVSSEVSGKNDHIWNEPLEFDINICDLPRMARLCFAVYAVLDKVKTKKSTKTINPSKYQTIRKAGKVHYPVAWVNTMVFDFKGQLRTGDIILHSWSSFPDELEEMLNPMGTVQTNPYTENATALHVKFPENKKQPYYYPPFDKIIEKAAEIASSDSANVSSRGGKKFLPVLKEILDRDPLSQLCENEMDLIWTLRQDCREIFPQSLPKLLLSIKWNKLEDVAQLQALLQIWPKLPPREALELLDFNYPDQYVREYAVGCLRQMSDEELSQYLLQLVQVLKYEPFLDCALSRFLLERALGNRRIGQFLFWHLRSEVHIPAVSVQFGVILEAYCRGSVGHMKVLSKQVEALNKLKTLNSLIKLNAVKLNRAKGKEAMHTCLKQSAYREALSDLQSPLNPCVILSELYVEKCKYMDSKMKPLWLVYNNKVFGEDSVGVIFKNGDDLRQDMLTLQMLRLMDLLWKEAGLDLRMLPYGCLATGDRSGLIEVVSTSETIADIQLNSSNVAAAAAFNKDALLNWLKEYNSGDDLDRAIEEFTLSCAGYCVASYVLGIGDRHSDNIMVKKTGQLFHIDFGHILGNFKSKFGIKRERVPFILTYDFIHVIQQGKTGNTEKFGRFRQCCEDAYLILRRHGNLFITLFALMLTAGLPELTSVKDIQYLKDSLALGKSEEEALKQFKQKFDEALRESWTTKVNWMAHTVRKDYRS
Chain of PI3kβ (P27986 whole entry partner): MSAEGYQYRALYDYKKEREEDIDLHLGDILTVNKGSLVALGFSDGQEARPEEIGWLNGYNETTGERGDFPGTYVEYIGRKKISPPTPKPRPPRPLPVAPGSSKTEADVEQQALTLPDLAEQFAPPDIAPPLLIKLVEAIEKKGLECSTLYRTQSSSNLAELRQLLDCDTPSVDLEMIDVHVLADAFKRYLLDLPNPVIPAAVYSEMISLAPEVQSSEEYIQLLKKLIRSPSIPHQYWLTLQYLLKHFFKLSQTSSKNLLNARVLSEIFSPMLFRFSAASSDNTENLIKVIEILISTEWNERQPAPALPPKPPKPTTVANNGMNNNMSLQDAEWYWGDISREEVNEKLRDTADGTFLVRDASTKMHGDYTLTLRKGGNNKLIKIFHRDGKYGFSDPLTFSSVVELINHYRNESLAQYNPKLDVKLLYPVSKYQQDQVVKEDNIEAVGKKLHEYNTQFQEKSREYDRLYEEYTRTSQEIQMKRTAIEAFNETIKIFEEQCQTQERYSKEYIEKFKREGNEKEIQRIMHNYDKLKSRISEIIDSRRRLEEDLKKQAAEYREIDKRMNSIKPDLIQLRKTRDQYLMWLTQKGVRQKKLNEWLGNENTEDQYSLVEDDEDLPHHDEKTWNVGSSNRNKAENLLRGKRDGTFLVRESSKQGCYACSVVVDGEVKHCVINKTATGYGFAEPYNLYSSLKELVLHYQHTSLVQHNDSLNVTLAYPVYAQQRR
Chain of PI3kδ (O00329 whole entry): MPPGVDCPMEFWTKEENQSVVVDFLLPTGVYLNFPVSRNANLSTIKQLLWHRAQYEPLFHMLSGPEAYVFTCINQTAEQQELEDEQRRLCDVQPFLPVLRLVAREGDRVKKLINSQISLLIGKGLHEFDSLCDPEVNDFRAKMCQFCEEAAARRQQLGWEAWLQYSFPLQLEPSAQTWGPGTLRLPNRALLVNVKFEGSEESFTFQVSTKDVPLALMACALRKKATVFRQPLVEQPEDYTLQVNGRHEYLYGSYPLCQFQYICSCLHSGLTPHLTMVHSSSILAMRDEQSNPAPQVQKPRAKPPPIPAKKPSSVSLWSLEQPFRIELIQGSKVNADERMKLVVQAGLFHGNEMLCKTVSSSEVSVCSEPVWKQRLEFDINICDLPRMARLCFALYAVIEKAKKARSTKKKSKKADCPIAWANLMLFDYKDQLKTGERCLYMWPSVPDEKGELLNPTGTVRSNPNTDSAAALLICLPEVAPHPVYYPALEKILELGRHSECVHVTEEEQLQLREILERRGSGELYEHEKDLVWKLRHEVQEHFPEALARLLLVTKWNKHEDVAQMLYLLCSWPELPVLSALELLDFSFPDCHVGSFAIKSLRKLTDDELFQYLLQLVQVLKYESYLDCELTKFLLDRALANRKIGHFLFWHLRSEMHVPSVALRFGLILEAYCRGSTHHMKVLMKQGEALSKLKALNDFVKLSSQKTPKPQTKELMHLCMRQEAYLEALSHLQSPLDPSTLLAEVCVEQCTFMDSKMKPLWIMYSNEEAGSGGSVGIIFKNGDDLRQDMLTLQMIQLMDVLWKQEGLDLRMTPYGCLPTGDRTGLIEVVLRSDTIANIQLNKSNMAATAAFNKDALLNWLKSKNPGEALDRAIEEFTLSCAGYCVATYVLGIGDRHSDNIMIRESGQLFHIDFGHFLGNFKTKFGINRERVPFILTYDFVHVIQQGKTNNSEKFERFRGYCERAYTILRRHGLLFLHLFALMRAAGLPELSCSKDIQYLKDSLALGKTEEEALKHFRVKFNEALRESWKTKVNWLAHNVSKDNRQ
Chain of PI3kδ (P27986 whole entry partner): as the sequence (P27986 whole entry partner) above
Chain of PI3kα (P42336 whole entry): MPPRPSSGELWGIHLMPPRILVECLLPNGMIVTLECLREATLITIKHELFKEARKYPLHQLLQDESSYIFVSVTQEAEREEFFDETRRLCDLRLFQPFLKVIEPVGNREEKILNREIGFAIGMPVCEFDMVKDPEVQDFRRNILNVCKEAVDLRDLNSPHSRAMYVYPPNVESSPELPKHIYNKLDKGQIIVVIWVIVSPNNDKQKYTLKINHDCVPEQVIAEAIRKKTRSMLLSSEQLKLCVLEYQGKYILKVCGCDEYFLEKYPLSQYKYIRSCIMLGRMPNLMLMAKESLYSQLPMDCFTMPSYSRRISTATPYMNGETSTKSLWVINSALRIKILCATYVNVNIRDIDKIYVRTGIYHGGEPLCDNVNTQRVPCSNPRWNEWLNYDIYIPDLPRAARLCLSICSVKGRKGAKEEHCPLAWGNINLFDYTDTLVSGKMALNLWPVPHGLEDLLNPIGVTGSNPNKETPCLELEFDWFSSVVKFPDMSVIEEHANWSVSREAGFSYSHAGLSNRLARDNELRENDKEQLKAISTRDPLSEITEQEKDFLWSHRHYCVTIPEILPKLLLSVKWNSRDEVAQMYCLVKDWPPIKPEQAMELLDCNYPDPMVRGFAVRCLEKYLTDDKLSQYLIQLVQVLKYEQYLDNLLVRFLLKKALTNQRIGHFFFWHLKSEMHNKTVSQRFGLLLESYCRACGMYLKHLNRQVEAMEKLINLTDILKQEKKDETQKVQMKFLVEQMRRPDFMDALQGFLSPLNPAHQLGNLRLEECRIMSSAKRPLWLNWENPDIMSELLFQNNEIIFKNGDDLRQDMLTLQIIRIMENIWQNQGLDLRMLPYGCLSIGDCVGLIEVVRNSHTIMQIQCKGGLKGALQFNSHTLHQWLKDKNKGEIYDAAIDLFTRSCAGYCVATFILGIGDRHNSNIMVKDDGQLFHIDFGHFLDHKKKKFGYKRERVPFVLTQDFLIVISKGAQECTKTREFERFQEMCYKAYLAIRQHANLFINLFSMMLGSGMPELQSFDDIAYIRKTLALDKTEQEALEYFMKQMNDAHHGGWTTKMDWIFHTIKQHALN
Chain of PI3kα (P27986 whole entry partner): as the sequence (P27986 whole entry partner) above

Regarding `CC(c1oc2cccc(F)c2c(=O)c1-c1cccc(F)c1)n1nc(-c2ccc(N3CCOCC3)c(F)c2)c2c(N)ncnc21` (racemic) [Example 70, (R)/(S)-2-(1-(4-amino-3-(3-fluoro-4-morpholinophenyl)-1H-pyrazolo[3,4-d]pyrimidin-1-yl)ethyl)-5-fluoro-3-(3-fluorophenyl)-4H-chromen-4-one], the melting point lay within 243 to 246 °C. The compound further displayed an inhibition at 0.1 µM in series [1] of 25 to 50%. The compound also displayed an inhibition at 0.1 µM in series [2] of 25 to 50%. In addition, the “% inhibition (PI3kβ) 1 uM” value in series [3] is “C (C=>25 to 50%)”. For the same compound, in series [4], the “% inhibition (PI3kα) 1 uM” value is listed as “D (D=0 to 25%)”.

The compound `CC(c1oc2cccc(F)c2c(=O)c1-c1cccc(F)c1)n1cnc2c(N(C)C)ncnc21` (racemic) [Example 129, (S)/(R)-2-(1-(6-(dimethylamino)-9H-purin-9-yl)ethyl)-5-fluoro-3-(3-fluorophenyl)-4H-chromen-4-one] displayed a melting point of 187 to 189 °C. Also, the “% inhibition (PI3kγ) 100 nM” value in series [1] is on record as “C (C=>25 to 50%)”. Besides, the “% inhibition (PI3kδ) 100 nM” value in series [2] is “D (D=0 to 25%)”. In series [3], the “% inhibition (PI3kβ) 1 uM” value was “C (C=>25 to 50%)”. In addition, in series [4], the “% inhibition (PI3kα) 1 uM” value is on record as “D (D=0 to 25%)”.

As for `CC(c1oc2cccc(F)c2c(=O)c1-c1cccc(F)c1)n1nc(-c2ccc(N3CCOCC3)c(F)c2)c2c(N)ncnc21` (single isomer, unassigned) [Example 59], the melting point was 242 to 245 °C. In series [1], this compound yielded an IC50 not above 50 nM. Also, the IC50 in series [2] lay within 100 to 300 nM. In series [3], this compound returned an IC50 of more than 500 nM and an inhibition at 1 µM of 25 to 50%. This compound also registered an IC50 in series [4] (numeric values) of more than 10000 nM.

Regarding `CC(c1oc2cccc(F)c2c(=O)c1-c1cccc(F)c1)n1nc(-c2ccc(N3CCOCC3)c(Cl)c2)c2c(N)ncnc21` (single isomer, unassigned) [Example 127], the melting point is 260 to 262 °C. For the same compound, the inhibition at 0.1 µM in series [1] lay within 0 to 25%. Moreover, in series [2], the inhibition at 0.1 µM fell in the range of 50 to 75%. Also, in series [3], the inhibition at 1 µM was in the range of 50 to 75%. Moreover, in series [4], the inhibition at 1 µM is 0 to 25%.

`CC(c1oc2cccc(F)c2c(=O)c1-c1cccc(F)c1)n1cnc2c(N(C)C)ncnc21` (single isomer, unassigned) [Example 130] had a melting point of 198 to 200 °C. In series [1], this compound gave an inhibition at 0.1 µM of 25 to 50%. In addition, the inhibition at 0.1 µM in series [2] was 25 to 50%. The compound further showed an inhibition at 1 µM in series [3] of 25 to 50%.

Consider `Cc1cccc2oc([C@H](C)n3nc(-c4ccc(OC(C)C)c(F)c4)c4c(N)ncnc43)c(-c3ccccc3)c(=O)c12` (single isomer, unassigned) [Example 137], for which the melting point was in the range of 208 to 210 °C. This compound also yielded an inhibition at 0.1 µM in series [1] of 0 to 25%. The inhibition at 0.1 µM in series [2] was 25 to 50%. Besides, the inhibition at 1 µM in series [3] is 50 to 75%. In series [4], the inhibition at 1 µM lay within 0 to 25%.

Compound `CC(Nc1ncnc2[nH]cnc12)c1oc2cccc(F)c2c(=O)c1-c1cccc(F)c1` (single isomer, unassigned; (+)) [Example 68, (+)-2-(1-(9H-purin-6-ylamino)ethyl)-5-fluoro-3-(3-fluorophenyl)-4H-chromen-4-one] gave a melting point of 194 to 197 °C. The “% inhibition (PI3kγ) 100 nM” value in series [1] is reported as “B (B=>50 to 75%)”. In addition, the “% inhibition (PI3kδ) 100 nM” value in series [2] is listed as “C (C=>25 to 50%)”. The “% inhibition (PI3kβ) 1 uM” value in series [3] is given as “B (B=>50 to 75%)”. In series [4], this compound yielded an inhibition at 1 µM of 25 to 50%.

Compound `CC(Nc1ncnc2[nH]cnc12)c1oc2cccc(F)c2c(=O)c1-c1cccc(F)c1` (single isomer, unassigned; (-)) [Example 78, (−)-2-(1-(9H-purin-6-ylamino)ethyl)-5-fluoro-3-(3-fluorophenyl)-4H-chromen-4-one] registered a melting point of 205 to 208 °C. In series [2], this compound had an IC50 of 50 to 100 nM and an inhibition at 0.1 µM of 50 to 75%. Moreover, the inhibition at 1 µM in series [3] lay in the range of 25 to 50%. This compound also displayed an inhibition at 1 µM in series [4] of 0 to 25%.

`CC(c1oc2cccc(F)c2c(=O)c1-c1cccc(F)c1)n1nc(-c2ccc(OC3COC3)c(F)c2)c2c(N)ncnc21` (stereo not shown) [Example 46, 2-(1-(4-amino-3-(3-fluoro-4-(oxetan-3-yloxy)phenyl)-1H-pyrazolo[3,4-d]pyrimidin-1-yl)ethyl)-5-fluoro-3-(3-fluorophenyl)-4H-chromen-4-one] returned a melting point of 235 to 237 °C. This compound also returned an inhibition at 0.3 µM in series [1] of 50 to 75%. This compound also yielded an inhibition at 0.3 µM in series [2] of 25 to 50%. In series [3], this compound gave an inhibition at 1 µM of 50 to 75%. The same compound had an inhibition at 1 µM in series [4] of 0 to 25%.

The compound `CC(C)C(=O)Nc1ccc(-c2nn(C(C)c3oc4cccc(F)c4c(=O)c3-c3cccc(F)c3)c3ncnc(N)c23)cc1` (stereo not shown) [Example 48, N-(4-(4-amino-1-(1-(5-fluoro-3-(3-fluorophenyl)-4-oxo-4H-chromen-2-yl)ethyl)-1H-pyrazolo[3,4-d]pyrimidin-3-yl)phenyl)isobutyramide] displayed a melting point of 154 to 157 °C. Moreover, in series [1], the IC50 is not above 50 nM and the inhibition at 0.3 µM fell in the range of 75 to 100%. In series [2], this compound had an inhibition at 0.3 µM of 50 to 75%. The inhibition at 1 µM in series [3] was in the range of 25 to 50%.

Take `CC(C)Cc1ccc(-c2nn(C(C)c3oc4cccc(F)c4c(=O)c3-c3cccc(F)c3)c3ncnc(N)c23)cc1` (stereo not shown) [Example 49, 2-(1-(4-amino-3-(4-isobutylphenyl)-1H-pyrazolo[3,4-d]pyrimidin-1-yl)ethyl)-5-fluoro-3-(3-fluorophenyl)-4H-chromen-4-one]: the melting point lay within 221 to 223 °C. Also, in series [1], the inhibition at 0.3 µM lay within 50 to 75%. This compound yielded an inhibition at 0.3 µM in series [2] of 50 to 75%. The same compound yielded an inhibition at 1 µM in series [3] of 50 to 75%. In addition, the inhibition at 1 µM in series [4] was 50 to 75%.

For `CNS(=O)(=O)c1ccc(-c2nn(C(C)c3oc4cccc(F)c4c(=O)c3-c3cccc(F)c3)c3ncnc(N)c23)cc1` (stereo not shown) [Example 52, 4-(4-amino-1-(1-(5-fluoro-3-(3-fluorophenyl)-4-oxo-4H-chromen-2-yl)ethyl)-1H-pyrazolo[3,4-d]pyrimidin-3-yl)-N-methylbenzenesulfonamide], the melting point is 175 to 178 °C. Moreover, the inhibition at 0.3 µM in series [1] fell in the range of 50 to 75%. In series [2], this compound gave an inhibition at 0.3 µM of 50 to 75%. This compound registered an inhibition at 1 µM in series [3] of 50 to 75%. Besides, the inhibition at 1 µM in series [4] was 25 to 50%.

On to `COC(=O)c1ccc(-c2nn(C(C)c3oc4cccc(F)c4c(=O)c3-c3cccc(F)c3)c3ncnc(N)c23)c(F)c1` (stereo not shown) [Example 64, methyl 4-(4-amino-1-(1-(5-fluoro-3-(3-fluorophenyl)-4-oxo-4H-chromen-2-yl)ethyl)-1H-pyrazolo[3,4-d]pyrimidin-3-yl)-3-fluorobenzoate], for which the melting point was in the range of 258 to 260 °C. This compound also yielded an inhibition at 0.1 µM in series [1] of 25 to 50%. Moreover, in series [2], the inhibition at 0.1 µM was 50 to 75%. The same compound showed an inhibition at 1 µM in series [3] of 25 to 50%.

The compound `CC(Nc1ncnc2[nH]cnc12)c1oc2cccc(F)c2c(=O)c1-c1cccc(F)c1` (stereo not shown) [Example 69, 2-(1-(9H-purin-6-ylamino)ethyl)-5-fluoro-3-(3-fluorophenyl)-4H-chromen-4-one] displayed a melting point of 247 to 249 °C. Also, the “% inhibition (PI3kγ) 100 nM” value in series [1] is “A (A=>75 to 100%)”. In series [2], the “% inhibition (PI3kδ) 100 nM” value is “B (B=>50 to 75%)”. Moreover, the “% inhibition (PI3kβ) 1 uM” value in series [3] is “C (C=>25 to 50%)”.

In the case of `CC(C)C(=O)Nc1ccc(-c2nn(C(C)c3oc4cccc(F)c4c(=O)c3-c3ccc(F)cc3)c3ncnc(N4CCOCC4)c23)cc1F` (stereo not shown) [Example 86, N-(2-fluoro-4-(1-(1-(5-fluoro-3-(4-fluorophenyl)-4-oxo-4H-chromen-2-yl)ethyl)-4-morpholino-1H-pyrazolo[3,4-d]pyrimidin-3-yl)phenyl)isobutyramide], the melting point was in the range of 165 to 167 °C. In series [1], this compound had a half-maximal inhibitory concentration (IC50) of more than 500 nM and an inhibition at 0.1 µM of 25 to 50%. Also, the inhibition at 0.1 µM in series [2] was 50 to 75%. This compound returned an inhibition at 1 µM in series [4] of 0 to 25%.

`CC(C)Oc1ccc(-c2nn(C(C)c3oc4cccc(N5CCOCC5)c4c(=O)c3-c3cccc(F)c3)c3ncnc(N)c23)cc1F` (stereo not shown) [Example 120, 2-(1-(4-amino-3-(3-fluoro-4-isopropoxyphenyl)-1H-pyrazolo[3,4-d]pyrimidin-1-yl)ethyl)-3-(3-fluorophenyl)-5-morpholino-4H-chromen-4-one] had a melting point of 227 to 229 °C. In series [1], this compound registered an inhibition at 0.1 µM of 0 to 25%. Moreover, in series [2], the inhibition at 0.1 µM was 0 to 25%.

Regarding `CC(c1oc2cccc(F)c2c(=O)c1-c1cccc(F)c1)n1nc(-c2ccc3c(c2)C(=O)NC3)c2c(N)ncnc21` (stereo not shown) [Example 122, 6-(4-amino-1-(1-(5-fluoro-3-(3-fluorophenyl)-4-oxo-4H-chromen-2-yl)ethyl)-1H-pyrazolo[3,4-d]pyrimidin-3-yl)isoindolin-1-one], the melting point was in the range of 242 to 245 °C. The compound also registered an inhibition at 0.1 µM in series [1] of 0 to 25%. In addition, the inhibition at 0.1 µM in series [2] is 25 to 50%.

`CC(c1oc2cccc(F)c2c(=O)c1-c1cccc(F)c1)n1cnc2c(N3CCN(C)CC3)ncnc21` (stereo not shown) [Example 125, 5-fluoro-3-(3-fluorophenyl)-2-(1-(6-(4-methylpiperazin-1-yl)-9H-purin-9-yl)ethyl)-4H-chromen-4-one] showed a melting point of 199 to 201 °C. The compound further displayed an inhibition at 0.1 µM in series [2] of 25 to 50%. For the same compound, in series [4], the inhibition at 1 µM fell in the range of 0 to 25%.

In the case of `CCOc1ccc(-c2nn(C(C)c3oc4cccc(F)c4c(=O)c3-c3cccc(F)c3)c3ncnc(N)c23)cc1C(F)(F)F` (stereo not shown) [Example 132, 2-(1-(4-amino-3-(4-ethoxy-3-(trifluoromethyl)phenyl)-1H-pyrazolo[3,4-d]pyrimidin-1-yl)ethyl)-5-fluoro-3-(3-fluorophenyl)-4H-chromen-4-one], the melting point was 225 to 227 °C. This compound also showed an inhibition at 0.1 µM in series [1] of 25 to 50%. The same compound gave an inhibition at 0.1 µM in series [2] of 50 to 75%.
